Experimental data from BindingDB's records for patent US12479887 (Purdue Research Foundation, 2025).

Biological target: T1, N-terminal Xaa-Pro-Lys N-methyltransferase 1 (Homo sapiens, UniProt Q9BV86)
T1 sequence (Q9BV86 whole entry): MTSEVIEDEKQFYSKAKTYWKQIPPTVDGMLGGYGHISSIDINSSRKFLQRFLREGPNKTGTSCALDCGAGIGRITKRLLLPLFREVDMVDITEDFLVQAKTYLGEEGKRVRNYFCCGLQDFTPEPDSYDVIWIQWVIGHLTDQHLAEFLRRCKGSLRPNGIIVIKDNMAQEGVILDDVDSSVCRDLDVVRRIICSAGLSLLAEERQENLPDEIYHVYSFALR
Test: Not found

N=C(N)NCCC[C@H](NC(=O)[C@H](CCCCN)N1CCC[C@H]1C(N)=O)C(=O)N[C@@H](Cc1c[nH]c2ccccc12)C(N)=O [US12479887, Compound 43] showed an IC50 of 95 nM.
